Measured values: US7427608B2, “Protection against and treatment of hearing loss” (The Research Foundation of State University of New York, priority 2001, dated 2008)
Where two headings read alike, the source gives them in different places.

Tests used:
[1] = target: Epidermal Growth Factor Receptor Tyrosine Kinase (EGFRTK) (Homo sapiens, UniProt P00533); assay: Inhibition of EGFRTK; format: biochemical; conditions: compound at 10 micromolar
Excerpt: (§1) Blanks for a particular enzyme indicate that inhibition was not found.

[2] = target: T1, protein tyrosine phosphatase 1B (PTP-1B) (Homo sapiens, UniProt P18031); assay: Inhibition of PTP-1B; format: biochemical; conditions: compound at 10 micromolar
T1 sequence (P18031 1-435): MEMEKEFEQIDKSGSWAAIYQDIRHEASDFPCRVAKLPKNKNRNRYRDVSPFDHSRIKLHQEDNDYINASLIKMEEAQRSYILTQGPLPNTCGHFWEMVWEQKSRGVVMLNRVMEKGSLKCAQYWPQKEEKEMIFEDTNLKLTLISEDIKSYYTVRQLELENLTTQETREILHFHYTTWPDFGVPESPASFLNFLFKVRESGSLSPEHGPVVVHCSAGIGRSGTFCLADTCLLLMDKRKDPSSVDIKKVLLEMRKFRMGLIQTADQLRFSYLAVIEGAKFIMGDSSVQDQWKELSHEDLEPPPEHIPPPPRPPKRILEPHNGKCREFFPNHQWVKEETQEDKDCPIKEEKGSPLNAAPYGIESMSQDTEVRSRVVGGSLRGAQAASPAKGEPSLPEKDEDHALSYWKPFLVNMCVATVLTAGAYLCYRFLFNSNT
Excerpt: as §1

[3] = target: p55 fyn (Homo sapiens, UniProt P06241); assay: Inhibition of p55 fyn; format: biochemical; conditions: compound at 10 micromolar
p55 fyn, sequence (P06241 whole entry): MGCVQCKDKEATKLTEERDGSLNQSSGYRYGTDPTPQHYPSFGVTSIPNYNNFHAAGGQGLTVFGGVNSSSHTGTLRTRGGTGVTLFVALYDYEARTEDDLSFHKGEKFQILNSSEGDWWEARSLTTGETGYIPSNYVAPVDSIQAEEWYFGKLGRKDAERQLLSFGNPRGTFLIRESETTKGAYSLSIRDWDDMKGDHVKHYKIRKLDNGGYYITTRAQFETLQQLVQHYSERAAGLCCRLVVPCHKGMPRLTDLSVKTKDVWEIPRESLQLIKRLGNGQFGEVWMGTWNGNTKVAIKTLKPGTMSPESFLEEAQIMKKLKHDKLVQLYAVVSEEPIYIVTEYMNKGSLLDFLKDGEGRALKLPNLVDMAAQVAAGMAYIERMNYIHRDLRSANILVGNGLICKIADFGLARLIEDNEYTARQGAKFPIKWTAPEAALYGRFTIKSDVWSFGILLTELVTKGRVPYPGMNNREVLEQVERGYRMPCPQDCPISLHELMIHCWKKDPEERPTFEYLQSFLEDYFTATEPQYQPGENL
Excerpt: as §1

[4] = system: human lung cancer cell line H460; assay: Inhibition of growth of human lung cancer cell line H460; format: cell-based; conditions: NCI-H460, 72 hours, total protein/well
Excerpt: The results are in Table 2, below.

[5] = target: full length human purified recombinant pp60^c-src (Homo sapiens, UniProt P12931); assay: Inhibition of isolated Src (Lai et al. 1998 assay, intracellular-mimetic conditions); format: biochemical
full length human purified recombinant pp60^c-src, sequence (P12931 whole entry): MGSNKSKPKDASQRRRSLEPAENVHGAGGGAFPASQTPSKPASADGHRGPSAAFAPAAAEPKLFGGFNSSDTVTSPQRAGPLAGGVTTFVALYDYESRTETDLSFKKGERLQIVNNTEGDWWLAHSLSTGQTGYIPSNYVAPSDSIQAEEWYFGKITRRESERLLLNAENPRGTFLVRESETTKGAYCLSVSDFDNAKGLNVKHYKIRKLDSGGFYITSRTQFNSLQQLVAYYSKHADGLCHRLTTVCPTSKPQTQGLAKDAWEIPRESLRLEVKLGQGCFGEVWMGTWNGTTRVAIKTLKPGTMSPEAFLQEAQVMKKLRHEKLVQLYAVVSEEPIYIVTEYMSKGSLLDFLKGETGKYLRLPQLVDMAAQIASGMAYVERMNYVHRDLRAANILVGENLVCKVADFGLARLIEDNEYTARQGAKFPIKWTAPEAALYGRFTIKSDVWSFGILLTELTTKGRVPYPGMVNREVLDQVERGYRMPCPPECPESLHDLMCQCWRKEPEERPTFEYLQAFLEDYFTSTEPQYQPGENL
Method: Subsequent to synthesis, several of the above compounds were tested for inhibition of the growth of human lung cancer cell line H460 and inhibition of isolated Src.

[6] = target: p56 lck (Homo sapiens, UniProt P06239); assay: Inhibition of p56 lck; format: biochemical; conditions: compound at 10 micromolar
p56 lck, sequence (P06239 whole entry, species assumed): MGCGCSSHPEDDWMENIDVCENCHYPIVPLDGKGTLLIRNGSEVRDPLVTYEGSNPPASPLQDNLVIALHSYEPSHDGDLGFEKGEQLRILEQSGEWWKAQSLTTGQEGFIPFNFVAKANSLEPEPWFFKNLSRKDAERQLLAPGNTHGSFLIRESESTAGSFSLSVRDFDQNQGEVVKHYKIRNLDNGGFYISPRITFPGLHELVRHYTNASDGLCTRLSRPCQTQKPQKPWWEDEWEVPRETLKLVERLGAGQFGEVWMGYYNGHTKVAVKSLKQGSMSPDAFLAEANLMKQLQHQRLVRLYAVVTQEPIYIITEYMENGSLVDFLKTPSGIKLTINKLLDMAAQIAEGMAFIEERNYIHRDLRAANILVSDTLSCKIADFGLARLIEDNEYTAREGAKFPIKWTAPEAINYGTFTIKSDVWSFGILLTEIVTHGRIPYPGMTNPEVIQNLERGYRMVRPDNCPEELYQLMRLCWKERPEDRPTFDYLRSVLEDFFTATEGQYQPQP
Excerpt: as §1

[7] = system: ovarian tumor cells (tumor N015) and abdominal carcinoma from patients; assay: Patient tumor cell culture, comparison with cancer drugs; format: cell-based, human
Excerpt: The initial non-peptide Src inhibitors have also shown very encouraging results in four different series of cell culture assays. 1) In the NIH 60-tumor cell panel assay, broad activity (as one would expect for a Src inhibitor) was seen against the tumor cell lines, including the prostate lines. […] 3) The Src inhibitors were compared to the cancer drugs etoposide, taxol, doxorubicin, and cisplatin in ovarian tumors from three different patients and an abdominal carcinoma from another patient. […] 5) Two of the Src inhibitors were also tested for inhibition of ts v-Src stimulated LA25 cell growth. […] 6) Two of the Src inhibitors were also tested for inhibition of normal rat kidney cell growth.

[8] = mouse, in vivo, ip
Method: These compounds were administered to SCID mice by intraperitoneal administration in tween80:EtOH.

Epidermal Growth Factor Receptor Tyrosine Kinase (EGFRTK), sequence (P00533 25-1210): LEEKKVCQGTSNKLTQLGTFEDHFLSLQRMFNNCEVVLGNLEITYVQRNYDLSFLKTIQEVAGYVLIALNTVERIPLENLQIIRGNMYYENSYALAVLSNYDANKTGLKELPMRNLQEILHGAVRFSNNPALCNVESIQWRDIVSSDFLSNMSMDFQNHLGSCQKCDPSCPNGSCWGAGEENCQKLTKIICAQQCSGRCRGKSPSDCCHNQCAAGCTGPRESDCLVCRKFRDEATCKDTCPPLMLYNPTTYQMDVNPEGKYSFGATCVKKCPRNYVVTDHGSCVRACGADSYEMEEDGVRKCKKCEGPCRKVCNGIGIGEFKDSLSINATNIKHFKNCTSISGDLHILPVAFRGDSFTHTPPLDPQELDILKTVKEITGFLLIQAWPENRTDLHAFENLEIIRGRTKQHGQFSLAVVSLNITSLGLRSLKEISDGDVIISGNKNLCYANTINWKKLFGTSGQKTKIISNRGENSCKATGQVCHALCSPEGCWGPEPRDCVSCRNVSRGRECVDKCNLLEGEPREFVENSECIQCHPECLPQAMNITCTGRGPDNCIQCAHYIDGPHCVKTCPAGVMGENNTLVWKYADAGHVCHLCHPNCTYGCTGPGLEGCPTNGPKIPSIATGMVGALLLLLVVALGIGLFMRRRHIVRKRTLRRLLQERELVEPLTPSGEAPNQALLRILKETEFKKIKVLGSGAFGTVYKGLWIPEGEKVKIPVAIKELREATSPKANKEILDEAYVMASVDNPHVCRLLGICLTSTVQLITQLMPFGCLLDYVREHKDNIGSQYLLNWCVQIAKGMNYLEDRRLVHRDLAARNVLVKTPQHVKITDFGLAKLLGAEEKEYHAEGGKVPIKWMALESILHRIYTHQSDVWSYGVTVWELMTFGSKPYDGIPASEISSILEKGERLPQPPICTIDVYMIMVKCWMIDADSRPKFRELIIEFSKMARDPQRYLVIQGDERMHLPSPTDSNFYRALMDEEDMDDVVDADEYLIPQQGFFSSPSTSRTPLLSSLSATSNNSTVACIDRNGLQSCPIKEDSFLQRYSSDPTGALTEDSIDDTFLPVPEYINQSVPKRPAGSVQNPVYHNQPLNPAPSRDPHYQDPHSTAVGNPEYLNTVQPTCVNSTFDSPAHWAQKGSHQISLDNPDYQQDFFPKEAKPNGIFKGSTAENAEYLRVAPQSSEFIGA

| SMILES | inhibition at 10 µM [1] [%] | inhibition at 10 µM [3] [%] | also measured |
| --- | --- | --- | --- |
| O=C(NCc1ccc(F)cc1C(F)(F)F)c1[nH]c2ccc(F)cc2c1-c1ccccc1 [Compound 2hh] | 12 | – | – |
| O=C(NCc1ccc(Cl)cc1Cl)c1cc2cc(F)ccc2[nH]1 [Compound 1ss] | – | – | inhibition at 10 µM [2]: 12% |
| COc1ccc(NC(=O)c2[nH]c3ccc(F)cc3c2-c2ccccc2)cc1CO [Compound 2f] | 18 | 11 | IC50 [4]: 13 ± 0.46 µM |
| O=C(NCc1cccc(F)c1)c1cc2cc(F)ccc2[nH]1 [Compound 1z] | 26 | – | IC50 [4]: 15 ± 1.6 µM |
| N=c1oc2c(O)cccc2cc1C(=O)Nc1cccc(O)c1 [Iminochromene 9TA, iminochromene 9TA, reference compound] | – | – | % Inhibition at 100 μM (std. dev.) ([5]; Example 3 hydroxynaphthalene series and published inhibitors, 100 μM inhibitor, 198 μM ATP): 30 (+/−15) % |
| COc1ccc(NC(=O)c2cc3cc(F)ccc3[nH]2)cc1CO [Compound 1cccc] | 19 | – | inhibition at 10 µM [2]: 20%; IC50 [4]: > 100 µM |
| O=C(NCc1ccc(C(F)(F)F)cc1)c1[nH]c2ccc(F)cc2c1-c1ccccc1 [Compound 2j] | 20 | – | – |
| O=C(NCc1cc(C(F)(F)F)ccc1F)c1cc2cc(F)ccc2[nH]1 [Compound 1aaa] | – | – | inhibition at 10 µM [2]: 12% |
| COc1cc(CNC(=O)c2cc3cc(F)ccc3[nH]2)ccc1OCc1ccccc1 [Compound 1qqq] | – | 11 | – |
| O=C(NCc1ccc(O)c(O)c1)c1cc2cc(F)ccc2[nH]1 [Compound 1gggg] | 25 | – | – |
| COc1cc(CNC(=O)c2cc3cc(F)ccc3[nH]2)cc(OC)c1 [Compound 1hhhh] | – | – | inhibition at 10 µM [2]: 17% |
| O=C(NCc1ccc(F)cc1Cl)c1[nH]c2ccc(F)cc2c1-c1ccccc1 [Compound 2o] | – | 12 | – |
| O=C(Nc1cc(O)cc(O)c1)c1cc2cc(F)ccc2[nH]1 [Compound 1r] | – | – | inhibition at 10 µM [6]: 11% |
| COc1cccc([C@H](C)NC(=O)c2cc3cc(F)ccc3[nH]2)c1 [Compound 1aa] | 12 | 10 | – |
| CCCOc1ccc(CNC(=O)c2cc3cc(F)ccc3[nH]2)cc1O [Compound 1nnnn] | 17 | 11 | – |
| O=C(NCc1ccc(Cl)cc1)c1[nH]c2ccc(F)cc2c1-c1ccccc1 [Compound 2gg] | – | – | inhibition at 10 µM [2]: 12% |
| O=C(Nc1ccc(CO)cc1)c1cc2cc(F)ccc2[nH]1 [Compound 1oo] | – | 17 | – |
| COc1cccc2c1C(=O)c1c(O)c3c(c(O)c1C2=O)C[C@@](O)(C(=O)CO)C[C@@H]3O[C@H]1C[C@H](N)[C@H](O)[C@H](C)O1 [doxorubicin] | – | – | efficacy relative to other cancer drugs in tumor cell culture [7]: more effective than etoposide and cisplatin |
| O=C(NCc1cccc(I)c1)c1cc2cc(F)ccc2[nH]1 [Compound 1ff] | 24 | – | – |
| CCCN(CCC)C(=O)c1cc2cc(F)ccc2[nH]1 [Compound 1g] | – | 19 | – |

| SMILES | inhibition at 10 µM [1] [%] | inhibition at 10 µM [3] [%] | also measured |
| --- | --- | --- | --- |
| O=C(NCCc1c[nH]c2ccccc12)c1cc2cc(F)ccc2[nH]1 [Compound 1u] | – | 10 | – |
| O=C(NCc1cccc(O)c1)c1cc2cc(F)ccc2[nH]1 [Compound 1a] | – | – | IC50 ([5]; column head: Src at 100 μM, read-out: Src IC50): 40 µM; toxicity in mice (weight loss), MTD study [8]: less toxic in mice than compound 2k from Example 4; IC50 [4]: 35 ± 0.59 µM |
| O=C(Nc1cccc(CO)c1)c1cc2cc(F)ccc2[nH]1 [Compound 1yyy] | 11 | – | IC50 [4]: 104 ± 10 µM |
| COc1cc(OC)c(CNC(=O)c2cc3cc(F)ccc3[nH]2)c(OC)c1 [Compound 1rr] | – | – | inhibition at 10 µM [6]: 12% |
| O=C(c1cc2cc(F)ccc2[nH]1)N1CCOCC1 [Compound 1w] | – | 10 | – |
| O=C(NCc1ccccc1Cl)c1cc2cc(F)ccc2[nH]1 [Compound 1yy] | – | 12 | inhibition at 10 µM [2]: 10% |
| O=C(NCc1cc(C(F)(F)F)cc(C(F)(F)F)c1)c1[nH]c2ccc(F)cc2c1-c1ccccc1 [Compound 2w] | – | – | inhibition at 10 µM [2]: 12% |
| O=C(NCc1ccc(Cl)cc1)c1cc2cc(F)ccc2[nH]1 [Compound 1rrr] | – | 15 | – |
| O=C(NCc1cc(Br)ccc1F)c1[nH]c2ccc(F)cc2c1-c1ccccc1 [Compound 2ll] | 10 | – | – |
| O=C(NCC1(O)CCCCC1)c1[nH]c2ccc(F)cc2c1-c1ccccc1 [Compound 2b] | 19 | 13 | – |
| O=C(N[C@@H](c1ccccc1)[C@@H](O)c1ccccc1)c1cc2cc(F)ccc2[nH]1 [Compound 1dd] | 41 | – | IC50 [4]: 33 ± 0.78 µM |
| O=C(NCc1ccc([N+](=O)[O-])cc1)c1[nH]c2ccc(F)cc2c1-c1ccccc1 [Compound 2kk] | – | 24 | – |
| O=C(N[C@H](c1ccccc1)[C@H](O)c1ccccc1)c1cc2cc(F)ccc2[nH]1 [Compound 1cc] | 19 | – | IC50 [4]: 30 ± 0.66 µM |
| O=C(Nc1ccccc1O)c1cc2cc(F)ccc2[nH]1 [Compound 1n] | – | – | inhibition at 10 µM [6]: 12% |
| O=C(Nc1cccc(O)c1)c1cc2ccc(O)cc2cc1O [Compound 2f] | – | – | IC50 ([5]; Example 3 hydroxynaphthalene series, 200 μM ATP, read-out: IC50): 16 µM |
| O=C(NCc1ccccc1)c1cc2cc(F)ccc2[nH]1 [Compound 1bb] | 19 | – | IC50 [4]: 82 ± 3.5 µM |
| O=C(NCc1cccc(F)c1)c1[nH]c2ccc(F)cc2c1-c1ccccc1 [Compound 2g] | – | – | IC50 [4]: 13 ± 0.56 µM |
| O=C(NCc1ccc(F)cc1)c1cc2cc(F)ccc2[nH]1 [Compound 1uuu] | – | 16 | inhibition at 10 µM [2]: 13% |
| O=C(NCc1cccc(O)c1)c1[nH]c2ccc(F)cc2c1-c1ccccc1 [Compound 3q] | – | – | IC50 [4]: 30 ± 0.34 µM |
| O=C(NCc1ccc(Br)cc1)c1cc2cc(F)ccc2[nH]1 [Compound 1kkkk] | 30 | – | – |

| SMILES | inhibition at 10 µM [1] [%] | inhibition at 10 µM [3] [%] | also measured |
| --- | --- | --- | --- |
| COc1ccc(CNC(=O)c2cc3cc(F)ccc3[nH]2)cc1 [Compound 1ee] | 16 | – | – |
| O=C(NCc1ccc([N+](=O)[O-])cc1)c1cc2cc(F)ccc2[nH]1 [Compound 1mmmm] | – | 29 | – |
| O=C(NCc1ccccc1F)c1cc2cc(F)ccc2[nH]1 [Compound 1bbb] | – | – | IC50 [4]: > 100 µM |
| O=C(NCCCCCCO)c1cc2cc(F)ccc2[nH]1 [Compound 1qqqq] | 18 | – | – |
| CC(=O)O[C@H]1C(=O)[C@@]2(C)[C@H]([C@H](OC(=O)c3ccccc3)[C@]3(O)C[C@H](OC(=O)[C@H](O)[C@@H](NC(=O)c4ccccc4)c4ccccc4)C(C)=C1C3(C)C)[C@]1(OC(C)=O)CO[C@@H]1C[C@@H]2O [taxol] | – | – | efficacy relative to other cancer drugs in tumor cell culture [7]: more effective than etoposide and cisplatin |
| CCCOc1ccc(NC(=O)c2[nH]c3ccc(F)cc3c2-c2ccccc2)cc1CO [Compound 2d] | 23 | – | – |
| O=C(NCc1cc(F)cc(F)c1)c1[nH]c2ccc(F)cc2c1-c1ccccc1 [Compound 2y] | 20 | – | – |
| O=C(NCc1ccccc1F)c1[nH]c2ccc(F)cc2c1-c1ccccc1 [Compound 2s] | 33 | 11 | inhibition at 10 µM [6]: 10%; IC50 [4]: 26 ± 0.34 µM |
| O=C(Nc1ccccc1CO)c1cc2cc(F)ccc2[nH]1 [Compound 1xxx] | – | – | inhibition at 10 µM [2]: 12% |
| O=C(NCc1cc(O)cc(OCc2ccccc2)c1)c1cc2cc(F)ccc2[nH]1 [Compound 1dddd] | – | – | inhibition at 10 µM [2]: 16% |
| O=C(NCc1cc(OCc2ccccc2)cc(OCc2ccccc2)c1)c1cc2cc(F)ccc2[nH]1 [Compound 1iiii] | 12 | – | – |
| O=C(Nc1ccc(OCc2ccccc2)c(CO)c1)c1[nH]c2ccc(F)cc2c1-c1ccccc1 [Compound 2e] | 10 | – | – |
| O=C(NCc1ccc(OCc2ccccc2)c(O)c1)c1cc2cc(F)ccc2[nH]1 [Compound 1jjjj] | – | – | inhibition at 10 µM [2]: 15% |
| Cc1cccc(Cl)c1CNC(=O)c1cc2cc(F)ccc2[nH]1 [Compound 1xx] | – | 14 | – |
| Cc1cc(C)cc(NC(=O)c2cc3cc(F)ccc3[nH]2)c1 [Compound 1t] | – | 11 | – |
| Cc1ccccc1CNC(=O)c1cc2cc(F)ccc2[nH]1 [Compound 1ffff] | 12 | – | – |
| O=C(NCc1cccc(C(F)(F)F)c1)c1cc2cc(F)ccc2[nH]1 [Compound 1jj] | – | 18 | – |
| O=C(Nc1ccc(Oc2ccccc2)cc1)c1cc2cc(F)ccc2[nH]1 [Compound 1k] | – | 13 | – |
| O=C(NCc1ccc(CO)cc1)c1cc2cc(F)ccc2[nH]1 [Compound 1oooo] | 33 | – | inhibition at 10 µM [6]: 10%; IC50 [4]: 74 ± 2.7 µM |
| O=C(NCc1cc(F)cc(C(F)(F)F)c1)c1cc2cc(F)ccc2[nH]1 [Compound 1mmm] | – | 14 | – |
